Source: patent US12624057B2, “Bisphosphonate quinolone conjugates and uses thereof” (BIOVINC, LLC, priority 2016, dated 2026)
Entries after “also recorded” stand apart in the source; their conditions may differ.

Legend:
[1] = system: Aggregatibacter actinomycetemcomitans biofilms on titanium implants; assay: Rat jawbone peri-implant osteomyelitis model, first animal experiment; assay type: in vivo, Sprague-Dawley rats; conditions: for activity compared with ciprofloxacin in multiple doses (in words): conjugate 10 mg/kg single dose versus ciprofloxacin 30 mg/kg total; for efficacy (in words): single dose 0.1 and 1 mg/kg
From the text: Since this BP-ciprofloxacin conjugate is novel and has not been tested in vivo, we performed an initial safety and efficacy study in an animal model of peri-implant osteomyelitis. This model is a unique in-house jawbone peri-implant osteomyelitis model that was developed specifically for translational value to study biofilm-mediated disease and host response in vivo (Freire, et al, Development of animal model for Aggregatibacter actinomycetemcomitans biofilm-mediated oral osteolytic infection: a preliminary study. J Periodontol 2011; 82:778-89). […] After biofilms are established on the implants in vitro, they are surgically transferred to the jawbone of each rat. Animals are anesthetized, the cheeks are retracted and a transmucosal osteotomy is performed so implants can be manually inserted into the osteotomy and secured. Two biofilm-inoculated implants are placed in each rat (n=12 rats and 24 implants) in the palatal bone bilaterally.
To determine appropriate dosing concentrations, we calculated approximate initial doses for the conjugate based on previous studies and pharmacokinetic data using similar target and release strategies and also rodents (Houghton, et al., Linking bisphosphonates to the free amino groups in fluoroquinolones: preparation of osteotropic prodrugs for the prevention of osteomyelitis. J Med Chem 2008; 51:6955-69; Morioka, et al., Design, synthesis, and biological evaluation of novel estradiol-bisphosphonate conjugates as bone-specific estrogens. Bioorg Med Chem 2010; 18:1143-8). We expected that increasing doses of 0.1, 1 and 10 mg/kg BP-ciprofloxacin molar equivalents will allow us to determine antimicrobial activity in 2 test animals per group based on sample size estimations and previous experience with the animal model (Freire, et al, Development of animal model for Aggregatibacter actinomycetemcomitans biofilm-mediated oral osteolytic infection: a preliminary study. J Periodontol 2011; 82:778-89). Animals were dosed via intraperitoneal injection under general anesthesia, and all compounds were constituted in sterile physiological injectable saline at appropriate pH. One week after pharmacotherapy, all animals were sacrificed and resection of peri-implant tissues was performed, and tissues were immediately homogenized and processed for quantitative assessment of microbial load. Animals were monitored throughout the study period for local or systemic adverse effects of pharmacotherapy.
This animal model is an in-house jawbone peri-implant osteomyelitis model designed specifically to study biofilm-mediated disease and host response in vivo (Freire, et al, Development of animal model for Aggregatibacter actinomycetemcomitans biofilm-mediated oral osteolytic infection: a preliminary study. J Periodontol 2011; 82:778-89). […] After biofilms were established on the implants in vitro, they were surgically transferred to the jawbone of each rat. For surgery, animals were anesthetized with 4% isoflurane inhalant initially followed by intraperitoneal injection of ketamine (80-90 mg/kg) plus xylazine (5-10 mg/kg). Then local anesthesia was given via infiltration injection of bupivicaine 0.25% at the surgical site. Buprenorphine sustained release (1.0-1.2 mg/kg) was then given subcutaneously as preemptive analgesia before making initial incisions. Once anesthetized, the buccal mucosa of each rat was retracted and a transmucosal osteotomy was performed with a pilot drill into the alveolar ridge in the natural diastema of the anterior palate. Implants were then manually inserted into the osteotomy and secured into the bone until the platform is at mucosal level.

[2] = system: biofilms of S. aureus strain ATCC-6538; assay: Preformed biofilms on HA discs, S. aureus; assay type: cell-based, Staphylococcus aureus; conditions: for bactericidal activity / reduction of CFUs against established biofilm (in words): HA as substrate
Procedure: Antimicrobial susceptibility testing of BP-ciprofloxacin against preformed biofilms of S. aureus strain ATCC-6538 and P. aeruginosa strain ATCC-15442: Strains cultured on appropriate agar plates (Columbia agar plate for S. aureus; MacConkey agar plate for P. aeruginosa) were transferred to liquid microbiological media and incubated for 24 h/37° C. under aerobic conditions. After incubation, strains were diluted to the density of 1 MF. The microbial dilutions were introduced to wells of 24-well plates containing HA discs as a substrate, or simply to polystyrene wells where the bottom surface of the wells served as the substrate for biofilm development. Strains were incubated at 37° C. for 4 hrs. Next, the microbe-containing solutions were removed from the wells. The surfaces, HA discs and polystyrene plates, were gently rinsed to leave adhered cells and to remove planktonic or loosely-bound microbes. Surfaces prepared in this manner were immersed in fresh TSB medium containing 0.24-125 mg/L of BP-ciprofloxacin conjugate. After 24 hrs of incubation at 37° C. the surfaces were rinsed using physiological saline solution and transferred to 1 mL of 0.5% saponin (Sigma-Aldrich, St Louis, MO). The surfaces were vortex-mixed vigorously for 1 minute to detach cells. Subsequently, all microbial suspensions were diluted 10 to 10^9 times. Each dilution ([…]) was cultured on the appropriate stable medium (MacConkey, Columbia for P. aeruginosa and S. aureus, respectively) and incubated at 37-C for 24 hours. After this time, the microbial colonies were counted and the number of cells forming biofilm was assessed. Results were presented as the mean number of CFU per square millimeter surface±standard error of the mean. To estimate the exact surface area of HA discs, x-ray tomographic analysis was applied. For estimation of the area of test plate bottoms, the equation for circle area: πr2 was applied.
Antimicrobial susceptibility testing of 6 against preformed biofilms of S. aureus strain ATCC-6538 and P. aeruginosa strain ATCC-15442: Strains cultured on appropriate agar plates (Columbia agar plate for S. aureus; MacConkey agar plate for P. aeruginosa) were transferred to liquid microbiological media and incubated for 24 hrs/37° C. under aerobic conditions. After incubation, strains were diluted to the density of 1 MF. The microbial dilutions were introduced to wells of 24-well plates containing HA discs as a substrate, or simply to polystyrene wells where the bottom surface of the wells served as the substrate for biofilm development. Strains were incubated at 37° C. for 4 hrs. Next, the microbe-containing solutions were removed from the wells. The surfaces, HA discs and polystyrene plates, were gently rinsed to leave adhered cells and to remove planktonic or loosely-bound microbes. […] After 24 hrs of incubation at 37° C. the surfaces were rinsed using physiological saline solution and transferred to 1 mL of 0.5% saponin (Sigma-Aldrich, St Louis, MO). The surfaces were vortex-mixed vigorously for 1 minute to detach cells. Subsequently, all microbial suspensions were diluted 10-1 to 10-9 times. Each dilution ([…]) was cultured on the appropriate stable medium (MacConkey, Columbia for P. aeruginosa and S. aureus, respectively) and incubated at 37° C. for 24 hrs. After this time, the microbial colonies were counted and the number of cells forming biofilm was assessed. Results were presented as the mean number of CFU per square millimeter surface±standard error of the mean. To calculate the surface area of HA discs, x-ray tomographic analysis was applied. For estimation of the area of test plate bottoms, the equation for circle area: πr^2 was applied.

[3] = system: S. aureus ATCC6538 biofilms; assay: Survival of S. aureus biofilm on pretreated, rinsed HA discs; assay type: cell-based, Staphylococcus aureus; conditions: for concentration that inhibited all biofilm growth: pretreated, rinsed HA discs; for times more active than ciprofloxacin alone in achieving complete bactericidal action: allowing for molecular mass; for ability to prevent biofilm formation on pretreated HA (in words): pretreated HA discs
Procedure: HA discs incubated in DMSO or phosphate buffer served as control samples. Next, discs were rinsed 3 times with sterile water. After rinsing, 2 mL of 0.5 MF of. S. aureus ATCC6538 were introduced to wells containing HA discs as a substrate for biofilm development and biofilms were formed as before.

[4] = ciprofloxacin, 10 mg/kg 3×/week (30 mg/kg total)
[5] = HA discs as substrate (Example 1)
[6] = HA discs as substrate (Example 5)
[7] = 24 hrs of growth (Examples 5, 6)
[8] = conjugate, single dose 10 mg/kg intraperitoneal

**Q.** With O=C(O)c1cn(C2CC2)c2cc(N3CCNCC3)c(F)cc2c1=O [ciprofloxacin, reference compound] as the molecule, how does the bacterial killing [1, 4] read?
**A.** 90%

**Q.** What about the “reduction of bacterial load” value [1, 4] of the same molecule?
**A.** 1 log

**Q.** What about the “bactericidal activity / reduction of CFUs against established biofilm (in words)” value (shortened to “bactericidal activity / reduction”) [2] of the same molecule?
**A.** statistically significant bactericidal activity

**Q.** What about the MBIC90 [2, 5] of the same molecule?
**A.** 8 µg/mL

**Q.** And the MBIC90 [2, 6]?
**A.** 8 µg/mL

**Q.** And the “concentration that inhibited all biofilm growth” value ([3]; 24 hrs of growth (Example 1))?
**A.** 100 µg/mL

**Q.** And the “concentration that inhibited all biofilm growth” value [3, 7]?
**A.** 100 µg/mL

**Q.** For O=C(O)c1cn(C2CC2)c2cc(N3CCN(C(=O)Oc4ccc(CC(P(=O)(O)O)P(=O)(O)O)cc4)CC3)c(F)cc2c1=O [Compound 6, 1-cyclopropyl-7-(4-((4-(2,2-diphosphonoethyl)phenoxy)carbonyl)piperazin-1-yl)-6-fluoro-4-oxo-1,4-dihydroquinoline-3-carboxylic acid], which “greater bactericidal activity than multiple dosing of ciprofloxacin” value ([1]; conjugate 10 mg/kg single dose) is on record?
**A.** ~1 log

**Q.** And the “activity compared with ciprofloxacin in multiple doses (in words)” value (“activity compared with ciprofloxacin” for short) [1]?
**A.** nearly an order of magnitude greater activity than ciprofloxacin alone

**Q.** And the “activity compared with ciprofloxacin” value ([1]; listed as BCC)?
**A.** an order of magnitude greater activity than the parent antibiotic ciprofloxacin alone; also recorded: approximately as effective as ciprofloxacin given at 30 mg/kg total dose

**Q.** What about the “activity compared with ciprofloxacin” value ([1]; listed as BP-ciprofloxacin) of the same molecule?
**A.** more than an order of magnitude greater activity than ciprofloxacin alone; also recorded: superior to multiple dosing of the parent antibiotic ciprofloxacin

**Q.** What about the “bacterial killing / bactericidal activity” value [1, 8] of the same molecule?
**A.** 99%

**Q.** And the “reduction of bacterial load versus negative control” value [1, 8]?
**A.** 2 log

**Q.** And the “efficacy (in words)” value ([1]; conjugate)?
**A.** little effect; also recorded: no efficacy; also recorded: ineffective

**Q.** And the “efficacy (in words)” value ([1]; conjugate, listed as BP-ciprofloxacin)?
**A.** little effect; also recorded: not efficacious

**Q.** And the “bactericidal activity / reduction” value [2]?
**A.** statistically significant (p<0.05, Kruskal-Wallis test) bactericidal activity

**Q.** What about the “bactericidal activity / reduction” value ([2]; listed as BP-ciprofloxacin) of the same molecule?
**A.** statistically significant bactericidal activity

**Q.** And the “bactericidal activity / reduction” value ([2]; listed as conjugate)?
**A.** statistically significant bactericidal activity and reduction of colony forming units

**Q.** And the MBIC50 [2, 5]?
**A.** 8 µg/mL

**Q.** And the MBIC90 [2, 5]?
**A.** 50 µg/mL

**Q.** What about the MBIC50 [2, 6] of the same molecule?
**A.** 16 µg/mL

**Q.** What about the MBIC90 [2, 6] of the same molecule?
**A.** 100 µg/mL

**Q.** And the “times more active than ciprofloxacin alone in achieving complete bactericidal action” value [3]?
**A.** 20

**Q.** And the “times more active than ciprofloxacin alone in achieving complete bactericidal action” value ([3]; listed as BP-ciprofloxacin)?
**A.** 20

**Q.** And the “ability to prevent biofilm formation on pretreated HA (in words)” value [3]?
**A.** superior antimicrobial activity

**Q.** And the “ability to prevent biofilm formation on pretreated HA (in words)” value ([3]; listed as BCC)?
**A.** inhibited

**Q.** What about the “concentration that inhibited all biofilm growth” value ([3]; 24 hrs of growth (Example 1)) of the same molecule?
**A.** 10 µg/mL

**Q.** What about the “concentration that inhibited all biofilm growth” value [3, 7] of the same molecule?
**A.** 10 µg/mL
